Source: the NIST ThermoML archive (doi:10.1021/je050540h)
± gives the expanded uncertainty stated by the source.

Test: xn = mol fraction of the nth substance listed
Settings: Liquid; for speed of sound: 7 kPa; for mass density / viscosity: 101 kPa

CCCC(C)O (stereo not drawn) [pentan-2-ol] + C1CCCCC1
Settings | mass density, 293.15 K [kg/m3] | mass density, 298.15 K [kg/m3] | mass density, 303.15 K [kg/m3] | speed of sound, 293.15 K [m/s] | speed of sound, 298.15 K [m/s] | speed of sound, 303.15 K [m/s] | viscosity, 293.15 K [mPa·s] | viscosity, 298.15 K [mPa·s] | viscosity, 303.15 K [mPa·s]
x2 = 0 | 809.04 ± 0.47 | 805.01 ± 0.48 | 800.9 ± 0.48 | 1250 ± 3 | 1232 ± 3 | 1214 ± 3 | 4.001 ± 0.093 | 3.273 ± 0.077 | 2.774 ± 0.066
x2 = 0.0495 | 806.87 ± 0.47 | 802.77 ± 0.48 | 798.6 ± 0.48 | 1247 ± 3 | 1229 ± 3 | 1210 ± 3 | 3.606 ± 0.084 | 2.969 ± 0.071 | 2.474 ± 0.059
x2 = 0.1002 | 804.68 ± 0.47 | 800.52 ± 0.48 | 796.28 ± 0.48 | 1244 ± 3 | 1225 ± 3 | 1206 ± 3 | 3.195 ± 0.075 | 2.658 ± 0.063 | 2.237 ± 0.054
x2 = 0.2019 | 800.29 ± 0.47 | 796 ± 0.48 | 791.65 ± 0.48 | 1238 ± 3 | 1218 ± 3 | 1199 ± 3 | 2.516 ± 0.06 | 2.125 ± 0.051 | 1.82 ± 0.044
x2 = 0.3067 | 796.06 ± 0.47 | 791.67 ± 0.48 | 787.23 ± 0.49 | 1234 ± 3 | 1213 ± 3 | 1193 ± 3 | 1.922 ± 0.046 | 1.659 ± 0.04 | 1.441 ± 0.035
x2 = 0.4011 | 792.42 ± 0.48 | 787.98 ± 0.48 | 783.48 ± 0.49 | 1231 ± 3 | 1210 ± 3 | 1189 ± 3 | 1.583 ± 0.038 | 1.385 ± 0.034 | 1.233 ± 0.03
x2 = 0.5085 | 788.62 ± 0.48 | 784.11 ± 0.48 | 779.56 ± 0.49 | 1230 ± 3 | 1209 ± 3 | 1187 ± 3 | 1.317 ± 0.032 | 1.178 ± 0.029 | 1.058 ± 0.026
x2 = 0.6066 | 785.63 ± 0.48 | 781.09 ± 0.48 | 776.49 ± 0.49 | 1232 ± 3 | 1211 ± 3 | 1189 ± 3 | 1.17 ± 0.029 | 1.056 ± 0.026 | 0.957 ± 0.024
x2 = 0.7118 | 782.94 ± 0.48 | 778.32 ± 0.49 | 773.65 ± 0.49 | 1239 ± 3 | 1216 ± 3 | 1194 ± 3 | 1.067 ± 0.027 | 0.97 ± 0.024 | 0.885 ± 0.022
x2 = 0.8096 | 780.86 ± 0.48 | 776.18 ± 0.49 | 771.44 ± 0.49 | 1247 ± 3 | 1224 ± 3 | 1201 ± 3 | 1.045 ± 0.026 | 0.952 ± 0.024 | 0.871 ± 0.022
x2 = 0.9049 | 779.29 ± 0.48 | 774.54 ± 0.49 | 769.74 ± 0.49 | 1259 ± 3 | 1235 ± 3 | 1211 ± 3 | 1.009 ± 0.025 | 0.924 ± 0.023 | 0.845 ± 0.022
x2 = 0.9557 | 778.62 ± 0.48 | 773.86 ± 0.49 | 769.07 ± 0.49 | 1267 ± 3 | 1243 ± 3 | 1219 ± 3 | 0.997 ± 0.025 | 0.912 ± 0.023 | 0.837 ± 0.021
